≈ marks a conversion by molar mass, not a printed value.
Legend:
HIV = experiment: inhibition of HIV-induced cytopathic effect in MT-4 cells (MTT method); assay type: cell-based; conditions: for EC50: Human immunodeficiency virus 1, MT4, HIV-infected MT-4 cells, 1000 CCID50, 4 or 5 day incubation at 37° C., MTT method, read-out: ED50: Effective concentration for the inhibition of the proliferation of HIV by 50%; for S.I.: Selectivity index (CD50/ED50): ratio CD50/ED50, MT-4 cells
Protocol: The anti-HIV assays were based on the inhibition of the virus-induced cytopathic effect in MT-4 cells as described in J. Virol. Methods, 16, 171 (1987). Briefly, MT-4 cells were suspended in culture medium at 2.5×10^5 cells/ml and infected with 1000 CCID50 (50% cell culture infective dose) of HIV. Immediately, after virus infection, 100 μl of the cell suspension was brought into each well of a flat-bottomedmicrotiter tray containing various concentrations of the test compounds. After a 4 or 5 day incubation at 37° C., the number of viable cells was determined by the 3-(4,5-dimethylthiazol-2-yl)-2,5-diphenyltetrazoliumbromide (MTT) method, as disclosed in J. Virol. Methods, 20, 309 (1988).
ED50 : Effective concentration for the inhibition of the
proliferation of HIV by 50%

[1] = cytotoxicity: viability of mock-infected MT-4 host cells (MTT method); assay type: cell-based; conditions: human, mt-4 cells, read-out: CD50: Cytotoxic concentration that causes death of cells by 50%
Protocol: The cytotoxicity of the compounds of the present invention was assessed in parallel with their antiviral activity. It was based on the viability of mock-infected host cells as determined by the MTT methods (se J. Virol. Methods, 20, 309 (1988)).
CD50 : Cytotoxic concentration that causes death of cells by 50%

Structure (SMILES) | EC50 (HIV) [µg/mL] | S.I.: Selectivity index (CD50/ED50) (HIV) | CC50 [1] [µg/mL]
C#CCn1c(Oc2cc(C)cc(C)c2)c(CC)c(=O)[nH]c1=O [Example 60, 1-propargyl-5-ethyl-6-(3,5-dimethylphenoxy)-2,4-pyrimidinedione] | < 0.62 | > 25 | 15.8 (≈ 52.8 µM)
CCOC(=O)C=CCn1c(C(=O)c2cc(C)cc(C)c2)c(CC)c(=O)[nH]c1=O [Example 72, 1-(ethoxycarbonylallyl)-5-ethyl-6-(3,5-dimethylbenzoyl)-2,4-pyrimidinedion] | < 0.01 | > 685 | 6.85 (≈ 17.8 µM)
CC/C=C/Cn1c(Sc2cc(C)cc(C)c2)c(C(C)C)c(=O)[nH]c1=O [Example 28] | < 0.009 | > 643 | 5.79 (≈ 16.2 µM)
C#CCn1c(Sc2ccccc2)c(CC)c(=O)[nH]c1=O [Example 1, 1-propargyl-5-ethyl-6-phenylthio-2,4-pyrimidinedione] | < 0.32 | > 46 | 14.8 (≈ 51.9 µM)
C/C=C\Cn1c(Oc2cc(C)cc(C)c2)c(C(C)C)c(=O)[nH]c1=O [Example 71, 1-(cis-2-butenyl)-5-isopropyl-6-(3,5-dimethylphenoxy)-2,4-pyrimidinedione] | < 0.0155 | > 497 | 7.71 (≈ 23.5 µM)
CCc1c(C(=O)c2cc(C)cc(C)c2)n(C/C=C/COC)c(=O)[nH]c1=O [Example 82, 1-(4-methoxy-trans-2-butenyl)-5-ethyl-6-(3,5-dimethylbenzoyl)-2,4-pyrimidinedione] | < 0.32 | > 134 | 43.1 (≈ 121 µM)
CC/C=C/Cn1c(C(=O)c2cc(C)cc(C)c2)c(CC)c(=O)[nH]c1=O [Example 46] | < 0.009 | > 1,015 | 9.14 (≈ 26.8 µM)
Cc1cc(C)cc(Cc2c(C(C)C)c(=O)[nH]c(=O)n2CC#Cc2ccccc2)c1 [Example 42, 1-(3-phenyl-2-propynyl)-5-isopropyl-6-(3,5-dimethylbenzyl)-2,4-pyrimidinedione] | < 0.009 | > 824 | 7.42 (≈ 19.2 µM)
C/C=C/Cn1c(Cc2cc(C)cc(C)c2)c(CC)c(=O)[nH]c1=O [Example 5, 1-(trans-2-butenyl)-5-ethyl-6-(3,5-dimethylbenzyl)-2,4-pyrimidinedione] | < 0.032 | > 1,518 | 48.6 (≈ 156 µM)
Cc1cc(C)cc(C(=O)c2c(C(C)C)c(=O)[nH]c(=O)n2C/C=C/CN=[N+]=[N-])c1 [Example 74, 1-(4-azido-trans-2-butenyl)-5-isopropyl-6-(3,5-dimethylbenzoyl)-2,4-pyrimidinedione] | < 0.009 | > 954 | 8.59 (≈ 22.5 µM)
CC#CCn1c(C(=O)c2cc(C)cc(C)c2)c(C(C)C)c(=O)[nH]c1=O [Example 55, 1-(2-butynyl)-5-isopropyl-6-(3,5-dimethylbenzoyl)-2,4-pyrimidinedione] | < 0.32 | > 130 | 41.7 (≈ 123 µM)
CCc1c(C(=O)c2cc(C)cc(C)c2)n(C/C=C\c2ccccc2)c(=O)[nH]c1=O [Example 69, 1-(cis-cinnamyl)-5-ethyl-6-(3,5-dimethylbenzoyl)-2,4-pyrimidinedione] | < 0.032 | > 270 | 8.67 (≈ 22.3 µM)
CCc1c(Sc2cc(C)cc(C)c2)n(COCc2ccccc2)c(=O)[nH]c1=O [Ref. 2, 1benzyloxymethyl-5-ethyl-6-(3,5-dimethylphenylthio)-2,4-pyrimidinedione, reference compound] | < 0.009 | > 672 | 6.05 (≈ 15.3 µM)
C/C=C/Cn1c(C(=O)c2cc(C)cc(C)c2)c(C(C)C)c(=O)[nH]c1=O [Example 51] | < 0.01 | > 2,473 | 22.3 (≈ 65.4 µM)
CCc1c(Oc2cc(C)cc(C)c2)n(CC#Cc2ccccc2)c(=O)[nH]c1=O [Example 61, 1-(3-phenyl-2-propynyl)-5-ethyl-6-(3,5-dimethylphenoxy)-2,4-pyrimidinedione] | < 0.009 | > 1,033 | 9.3 (≈ 24.8 µM)
CCOCn1c(Cc2cc(C)cc(C)c2)c(CC)c(=O)[nH]c1=O [Ref. 1, 1ethoxymethyl-5-ethyl-6-(3,5-dimethylbenzyl)-2,4-pyrimidinedione, reference compound] | < 0.009 | > 4,962 | 44.7 (≈ 141 µM)
C=CCn1c(C(=O)c2cc(C)cc(C)c2)c(CC)c(=O)[nH]c1=O [Example 43, 1-allyl-5-ethyl-6-(3,5-dimethylbenzoyl)-2,4-pyrimidinedione] | < 0.17 | > 320 | 54.5 (≈ 175 µM)
COC(=O)/C=C/Cn1c(C(=O)c2cc(C)cc(C)c2)c(C(C)C)c(=O)[nH]c1=O [Example 54] | < 0.01 | > 3,005 | 30.1 (≈ 78.2 µM)

Structure (SMILES) | EC50 (HIV) [µg/mL] | S.I.: Selectivity index (CD50/ED50) (HIV) | CC50 [1] [µg/mL]
CCc1c(Sc2cc(C)cc(C)c2)n(C/C=C/C(=O)OC)c(=O)[nH]c1=O [Example 21] | < 0.32 | > 129 | 41.4 (≈ 111 µM)
CCc1c(Sc2cc(C)cc(C)c2)n(CC=CC(=O)O)c(=O)[nH]c1=O [Example 77, 1-(carboxyallyl)-5-ethyl-6-(3,5-dimethylphenylthio)-2,4-pyrimidinedione] | < 0.902 | > 75 | 68.3 (≈ 190 µM)
CCc1c(C(=O)c2cc(C)cc(C)c2)n(CC#Cc2ccccc2)c(=O)[nH]c1=O [Example 50, 1-(3-phenyl-2-propynyl)-5-ethyl-6-(3,5-dimethylbenzoyl)-2,4-pyrimidinedione] | < 0.009 | > 482 | 4.34 (≈ 11.2 µM)
Cc1cc(C)cc(Sc2c(C(C)C)c(=O)[nH]c(=O)n2CC#Cc2ccccc2)c1 [Example 3, 1-(3-phenyl-2-propynyl)-5-isopropyl-6-(3,5-dimethylphenylthio)-2,4-pyrimidinedione] | < 0.009 | > 882 | 7.94 (≈ 19.6 µM)
C/C=C/Cn1c(Oc2cc(C)cc(C)c2)c(C(C)C)c(=O)[nH]c1=O [Example 64] | < 0.009 | > 1,098 | 9.89 (≈ 30.1 µM)
CC(=O)OC/C=C/Cn1c(C(=O)c2cc(C)cc(C)c2)c(C(C)C)c(=O)[nH]c1=O [Example 75, 1-(4-acetoxy-trans-2-butenyl)-5-isopropyl-6-(3,5-dimethylbenzoyl)-2,4-pyrimidinedione] | < 0.009 | > 6,487 | 58.4 (≈ 147 µM)
C/C=C/Cn1c(Cc2cc(C)cc(C)c2)c(C(C)C)c(=O)[nH]c1=O [Example 41] | 0.01 (≈ 0.0306 µM) | > 2,104 | 21 (≈ 64.5 µM)
C/C=C/Cn1c(Sc2cc(C)cc(C)c2)c(C(C)C)c(=O)[nH]c1=O [Example 27] | < 0.009 | > 740 | 6.66 (≈ 19.3 µM)
C/C=C/Cn1c(Cc2ccccc2)c(CC)c(=O)[nH]c1=O [Example 32] | < 0.32 | > 101 | 32.4 (≈ 114 µM)
Cc1cc(C)cc(C(=O)c2c(C(C)C)c(=O)[nH]c(=O)n2C/C=C/CO)c1 [Example 76, 1-(4-hydroxy-trans-2-butenyl)-5-isopropyl-6-(3,5-dimethylbenzoyl)-2,4-pyrimidinedione] | < 0.025 | > 1,679 | 42 (≈ 118 µM)
CCc1c(Cc2cc(C)cc(C)c2)n(CC=C(C)C)c(=O)[nH]c1=O [Example 36, 1-(3-methyl-2-butenyl)-5-ethyl-6-(3,5-dimethylbenzyl)-2,4-pyrimidinedione] | < 0.33 | 66 | 22.1 (≈ 67.6 µM)
CC/C=C/Cn1c(C(=O)c2cc(C)cc(C)c2)c(C(C)C)c(=O)[nH]c1=O [Example 53] | < 0.009 | > 665 | 5.99 (≈ 16.9 µM)
CCc1c(C(=O)c2cc(C)cc(C)c2)n(CC=CC(=O)OC)c(=O)[nH]c1=O [Example 8, 1-(methoxycarbonylallyl)-5-ethyl-6-(3,5-dimethylbenzoyl)-2,4-pyrimidinedione] | < 0.19 | > 143 | 27.2 (≈ 73.5 µM)
COC(=O)/C=C/Cn1c(Oc2cc(C)cc(C)c2)c(C(C)C)c(=O)[nH]c1=O [Example 66] | < 0.32 | > 245 | 78.6 (≈ 211 µM)
CCc1c(Sc2ccccc2)n(C/C=C\COCc2ccccc2)c(=O)[nH]c1=O [Example 17] | 3.68 (≈ 9.01 µM) | 1.57 | 5.79 (≈ 14.2 µM)
Cc1cc(C)cc(Cc2c(C(C)C)c(=O)[nH]c(=O)n2C/C=C/c2ccccc2)c1 [Example 6, 1-(trans-cinnamyl)-5-isopropyl-6-(3,5-dimethylbenzyl)-2,4-pyrimidinedione] | < 0.009 | > 892 | 8.03 (≈ 20.7 µM)
CC/C=C/Cn1c(Oc2cc(C)cc(C)c2)c(CC)c(=O)[nH]c1=O [Example 62] | < 0.032 | > 251 | 8.05 (≈ 24.5 µM)
